Like-named read-outs stand apart in the source and are kept apart here.
Legend:
Format in all cases: biochemical
SARS-CoV-2 nsp14 MTase = SARS-CoV-2 nsp14 MTase (Severe acute respiratory syndrome coronavirus 2, UniProt P0DTD1); experiment: biochemical
[1] = target: human RNMT (N7 guanosine RNA methyltransferase) (Homo sapiens, UniProt O43148); experiment: RNMT activity inhibition (selectivity)
PRMT5 = PRMT5 (Homo sapiens, UniProt O14744); experiment: human MTase selectivity panel
PRMT6 = PRMT6 (Homo sapiens, UniProt Q96LA8); experiment: human MTase selectivity panel
Sequence of PRMT6 (Q96LA8 whole entry): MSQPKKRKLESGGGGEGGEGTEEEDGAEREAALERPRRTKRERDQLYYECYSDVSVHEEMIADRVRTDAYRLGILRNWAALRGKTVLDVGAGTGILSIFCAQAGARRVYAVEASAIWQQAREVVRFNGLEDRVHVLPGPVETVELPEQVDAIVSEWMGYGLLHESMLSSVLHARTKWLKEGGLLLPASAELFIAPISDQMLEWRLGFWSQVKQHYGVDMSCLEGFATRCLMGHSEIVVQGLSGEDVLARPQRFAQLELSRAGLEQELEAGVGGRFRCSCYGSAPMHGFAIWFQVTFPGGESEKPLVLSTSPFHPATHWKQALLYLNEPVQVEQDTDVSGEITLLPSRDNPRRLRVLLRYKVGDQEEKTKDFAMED

SETDB1 = SETDB1 (Homo sapiens, UniProt Q15047); experiment: human MTase selectivity panel
SETD2 = SETD2 (Homo sapiens, UniProt Q9BYW2); experiment: human MTase selectivity panel
NSD1 = NSD1 (Homo sapiens, UniProt Q96L73); experiment: human MTase selectivity panel
Sequence of NSD1 (Q96L73 whole entry): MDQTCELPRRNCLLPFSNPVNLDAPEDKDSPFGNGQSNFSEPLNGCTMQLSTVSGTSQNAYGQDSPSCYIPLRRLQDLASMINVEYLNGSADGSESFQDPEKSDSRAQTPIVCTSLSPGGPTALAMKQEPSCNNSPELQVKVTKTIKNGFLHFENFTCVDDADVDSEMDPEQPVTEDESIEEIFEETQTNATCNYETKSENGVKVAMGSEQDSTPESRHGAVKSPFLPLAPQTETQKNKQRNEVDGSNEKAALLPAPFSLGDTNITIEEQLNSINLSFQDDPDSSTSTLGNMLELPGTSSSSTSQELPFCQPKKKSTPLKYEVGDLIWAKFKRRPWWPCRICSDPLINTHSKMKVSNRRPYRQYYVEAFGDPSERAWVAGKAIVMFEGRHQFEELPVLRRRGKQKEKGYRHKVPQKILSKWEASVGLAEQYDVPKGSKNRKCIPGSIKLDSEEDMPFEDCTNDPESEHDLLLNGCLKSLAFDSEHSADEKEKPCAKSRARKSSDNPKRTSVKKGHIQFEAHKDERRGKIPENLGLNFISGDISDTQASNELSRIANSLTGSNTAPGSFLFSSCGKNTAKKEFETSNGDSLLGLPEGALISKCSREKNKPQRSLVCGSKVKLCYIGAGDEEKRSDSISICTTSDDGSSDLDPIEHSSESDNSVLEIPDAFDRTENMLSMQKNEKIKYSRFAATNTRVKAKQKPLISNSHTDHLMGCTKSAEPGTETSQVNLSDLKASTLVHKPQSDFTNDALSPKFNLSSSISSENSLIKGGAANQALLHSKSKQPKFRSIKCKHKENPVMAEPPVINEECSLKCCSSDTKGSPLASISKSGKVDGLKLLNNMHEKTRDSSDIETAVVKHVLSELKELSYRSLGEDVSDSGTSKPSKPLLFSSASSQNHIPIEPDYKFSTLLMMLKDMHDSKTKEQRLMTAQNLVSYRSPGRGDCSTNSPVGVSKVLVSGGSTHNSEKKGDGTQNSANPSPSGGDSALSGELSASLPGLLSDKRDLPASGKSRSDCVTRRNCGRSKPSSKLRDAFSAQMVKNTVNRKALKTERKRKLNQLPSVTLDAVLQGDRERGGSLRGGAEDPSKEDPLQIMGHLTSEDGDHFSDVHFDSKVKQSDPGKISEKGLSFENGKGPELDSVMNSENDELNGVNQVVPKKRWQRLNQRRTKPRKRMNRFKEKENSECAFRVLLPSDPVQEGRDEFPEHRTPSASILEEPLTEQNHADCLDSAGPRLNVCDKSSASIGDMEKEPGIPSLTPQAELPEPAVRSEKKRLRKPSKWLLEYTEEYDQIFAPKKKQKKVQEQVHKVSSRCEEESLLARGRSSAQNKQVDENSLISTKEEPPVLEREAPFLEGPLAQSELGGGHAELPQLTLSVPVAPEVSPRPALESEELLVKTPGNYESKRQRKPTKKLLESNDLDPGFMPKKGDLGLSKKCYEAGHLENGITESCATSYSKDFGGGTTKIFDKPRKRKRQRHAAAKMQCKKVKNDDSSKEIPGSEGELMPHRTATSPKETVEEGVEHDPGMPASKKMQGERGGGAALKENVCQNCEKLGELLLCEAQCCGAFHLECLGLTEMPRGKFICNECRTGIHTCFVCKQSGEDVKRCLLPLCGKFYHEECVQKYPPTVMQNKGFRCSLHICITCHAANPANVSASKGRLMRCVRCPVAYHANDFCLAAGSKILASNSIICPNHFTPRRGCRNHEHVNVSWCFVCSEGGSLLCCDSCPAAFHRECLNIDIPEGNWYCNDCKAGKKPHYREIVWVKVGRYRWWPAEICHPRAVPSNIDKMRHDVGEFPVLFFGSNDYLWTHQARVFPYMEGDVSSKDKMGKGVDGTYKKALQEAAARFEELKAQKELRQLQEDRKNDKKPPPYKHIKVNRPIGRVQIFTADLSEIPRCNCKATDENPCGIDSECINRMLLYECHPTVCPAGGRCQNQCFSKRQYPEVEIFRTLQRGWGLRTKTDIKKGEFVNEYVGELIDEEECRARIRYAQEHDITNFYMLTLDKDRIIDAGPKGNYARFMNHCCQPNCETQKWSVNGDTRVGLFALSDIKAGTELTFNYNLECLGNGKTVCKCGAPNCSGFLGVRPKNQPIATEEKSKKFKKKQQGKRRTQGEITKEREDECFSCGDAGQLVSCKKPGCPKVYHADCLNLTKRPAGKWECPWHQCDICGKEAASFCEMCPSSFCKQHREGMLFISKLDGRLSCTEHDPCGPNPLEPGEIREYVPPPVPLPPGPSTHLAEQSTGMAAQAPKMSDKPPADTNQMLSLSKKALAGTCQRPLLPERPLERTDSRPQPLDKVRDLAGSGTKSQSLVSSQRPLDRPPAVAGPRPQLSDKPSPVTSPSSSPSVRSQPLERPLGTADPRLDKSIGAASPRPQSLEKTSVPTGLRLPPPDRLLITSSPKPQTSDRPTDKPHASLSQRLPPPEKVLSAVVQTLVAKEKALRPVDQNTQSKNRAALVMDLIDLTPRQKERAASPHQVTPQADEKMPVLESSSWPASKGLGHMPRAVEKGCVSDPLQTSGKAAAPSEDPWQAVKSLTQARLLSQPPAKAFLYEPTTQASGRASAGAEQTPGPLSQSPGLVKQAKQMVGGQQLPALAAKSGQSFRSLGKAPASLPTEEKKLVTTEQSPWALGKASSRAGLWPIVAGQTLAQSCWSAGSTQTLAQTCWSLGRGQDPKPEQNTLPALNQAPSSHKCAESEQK

NSD2 = target: T1, NSD2 (Homo sapiens, UniProt O96028); experiment: human MTase selectivity panel
T1 sequence (O96028 1-1365): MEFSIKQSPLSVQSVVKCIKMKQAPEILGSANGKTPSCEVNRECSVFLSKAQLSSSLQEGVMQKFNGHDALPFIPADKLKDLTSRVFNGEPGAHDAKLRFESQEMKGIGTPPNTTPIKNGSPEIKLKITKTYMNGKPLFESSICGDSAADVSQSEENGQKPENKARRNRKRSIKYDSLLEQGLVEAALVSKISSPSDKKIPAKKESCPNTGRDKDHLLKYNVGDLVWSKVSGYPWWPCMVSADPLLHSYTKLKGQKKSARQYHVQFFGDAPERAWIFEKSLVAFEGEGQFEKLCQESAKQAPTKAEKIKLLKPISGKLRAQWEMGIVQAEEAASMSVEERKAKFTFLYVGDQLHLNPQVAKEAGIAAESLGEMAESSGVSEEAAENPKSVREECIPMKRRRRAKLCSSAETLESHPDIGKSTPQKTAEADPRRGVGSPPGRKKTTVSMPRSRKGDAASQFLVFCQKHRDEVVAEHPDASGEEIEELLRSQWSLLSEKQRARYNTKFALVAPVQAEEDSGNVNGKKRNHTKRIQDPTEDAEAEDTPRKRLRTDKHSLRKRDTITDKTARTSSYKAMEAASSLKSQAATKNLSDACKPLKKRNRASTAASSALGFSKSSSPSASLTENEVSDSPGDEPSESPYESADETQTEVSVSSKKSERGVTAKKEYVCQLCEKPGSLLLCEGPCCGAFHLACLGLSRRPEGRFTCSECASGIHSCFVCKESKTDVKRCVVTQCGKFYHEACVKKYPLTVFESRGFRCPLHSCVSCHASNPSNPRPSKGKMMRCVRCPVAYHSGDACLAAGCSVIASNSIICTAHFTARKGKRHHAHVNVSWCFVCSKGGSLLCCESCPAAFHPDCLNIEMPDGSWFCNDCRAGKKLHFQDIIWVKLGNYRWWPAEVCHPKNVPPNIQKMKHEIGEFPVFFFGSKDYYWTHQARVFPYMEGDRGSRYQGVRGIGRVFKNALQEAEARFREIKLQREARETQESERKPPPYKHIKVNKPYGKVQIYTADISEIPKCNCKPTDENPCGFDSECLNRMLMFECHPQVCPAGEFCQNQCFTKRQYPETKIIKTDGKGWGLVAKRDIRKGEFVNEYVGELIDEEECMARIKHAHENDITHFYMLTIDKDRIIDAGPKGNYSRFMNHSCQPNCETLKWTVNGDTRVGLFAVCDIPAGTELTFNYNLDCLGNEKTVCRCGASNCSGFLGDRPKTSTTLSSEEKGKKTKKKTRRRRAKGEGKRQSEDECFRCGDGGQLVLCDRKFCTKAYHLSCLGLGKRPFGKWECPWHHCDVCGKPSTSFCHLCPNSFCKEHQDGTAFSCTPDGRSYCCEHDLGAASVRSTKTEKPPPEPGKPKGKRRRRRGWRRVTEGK

[2] = average ± SD, read-out: Activity (%) at 10 µM Average
[3] = read-out: Activity (%) at 10 µM Replicate 1
[4] = read-out: Activity (%) at 10 µM Replicate 2
[5] = read-out: Activity (%) at 10 µM Replicate 3

Sequence of PRMT5 (O14744 whole entry): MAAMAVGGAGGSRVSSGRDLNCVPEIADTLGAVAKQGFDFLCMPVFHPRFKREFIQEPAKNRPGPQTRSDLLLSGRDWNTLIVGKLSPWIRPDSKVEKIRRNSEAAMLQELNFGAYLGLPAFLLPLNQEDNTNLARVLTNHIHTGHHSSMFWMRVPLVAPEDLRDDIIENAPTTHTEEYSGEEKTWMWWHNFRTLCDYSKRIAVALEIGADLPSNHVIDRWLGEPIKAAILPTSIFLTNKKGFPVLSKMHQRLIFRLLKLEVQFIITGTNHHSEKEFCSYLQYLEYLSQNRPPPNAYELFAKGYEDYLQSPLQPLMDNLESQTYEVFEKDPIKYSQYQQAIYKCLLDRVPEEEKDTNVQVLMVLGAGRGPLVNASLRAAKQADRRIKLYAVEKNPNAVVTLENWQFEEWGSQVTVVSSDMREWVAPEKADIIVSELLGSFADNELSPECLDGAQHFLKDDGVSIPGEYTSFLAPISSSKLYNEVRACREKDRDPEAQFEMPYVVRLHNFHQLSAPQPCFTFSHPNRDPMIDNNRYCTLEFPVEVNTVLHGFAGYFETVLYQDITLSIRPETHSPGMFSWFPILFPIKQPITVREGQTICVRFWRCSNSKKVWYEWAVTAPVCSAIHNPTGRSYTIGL
Sequence of PRMT5 (Q9BQA1 whole entry partner): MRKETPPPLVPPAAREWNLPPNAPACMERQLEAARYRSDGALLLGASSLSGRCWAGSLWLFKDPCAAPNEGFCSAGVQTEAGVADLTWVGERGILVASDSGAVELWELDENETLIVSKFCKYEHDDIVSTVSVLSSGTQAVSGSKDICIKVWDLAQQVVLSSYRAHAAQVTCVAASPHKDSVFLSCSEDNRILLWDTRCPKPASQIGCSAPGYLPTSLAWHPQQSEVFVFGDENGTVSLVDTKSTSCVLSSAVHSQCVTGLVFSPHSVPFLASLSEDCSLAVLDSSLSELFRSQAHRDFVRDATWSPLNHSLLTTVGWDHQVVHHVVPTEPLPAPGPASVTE
Sequence of human RNMT (N7 guanosine RNA methyltransferase) (O43148 whole entry): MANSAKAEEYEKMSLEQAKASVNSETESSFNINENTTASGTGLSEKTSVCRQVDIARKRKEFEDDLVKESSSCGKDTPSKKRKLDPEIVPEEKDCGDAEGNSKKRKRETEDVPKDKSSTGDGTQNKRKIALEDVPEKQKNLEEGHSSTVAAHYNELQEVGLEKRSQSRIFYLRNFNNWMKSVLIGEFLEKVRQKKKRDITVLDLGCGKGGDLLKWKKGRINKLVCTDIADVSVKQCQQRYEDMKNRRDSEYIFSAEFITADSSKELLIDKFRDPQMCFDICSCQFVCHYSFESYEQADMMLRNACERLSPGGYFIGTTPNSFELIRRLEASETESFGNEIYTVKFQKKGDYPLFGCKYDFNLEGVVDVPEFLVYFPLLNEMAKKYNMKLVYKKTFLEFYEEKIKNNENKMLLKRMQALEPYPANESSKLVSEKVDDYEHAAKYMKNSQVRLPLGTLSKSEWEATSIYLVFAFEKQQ

SMILES: Nc1ncnc2c1ncn2[C@@H]1O[C@H](CSCc2ccc(Cl)cc2)[C@@H](O)[C@H]1O [NSC620333]
- IC50 (SARS-CoV-2 nsp14 MTase; IC50 (µM), nsp14 MTase activity, high-throughput screening follow-up): 5 µM
- IC50 (SARS-CoV-2 nsp14 MTase; IC50, at Km of both SAM and RNA substrates, mean ± SD, n = 3): 5.3 ± 1 µM
- mechanism of action with respect to RNA substrate (SARS-CoV-2 nsp14 MTase; IC50 at varying RNA (31 to 500 nM), fixed SAM 1.25 µM): noncompetitive
- mechanism of action with respect to SAM (SARS-CoV-2 nsp14 MTase; IC50 at varying SAM (0.15 to 2.5 µM), fixed RNA 0.25 µM): SAM competitive
- inhibition of nsp14, batch retesting (SARS-CoV-2 nsp14 MTase; custom-ordered, highly purified (>99%) sample): more pronounced inhibition
- inhibition at 100 µM (SARS-CoV-2 nsp14 MTase; read-out: nsp14 Inhibition % (100µM) Exp 1): 100%
- inhibition at 100 µM (SARS-CoV-2 nsp14 MTase; read-out: nsp14 Inhibition % (100µM) Exp 2): 99%
- IC50 ([1]; RNMT): 8.6 ± 1.3 µM
- Hill Slope ([1]; RNMT IC50 curve): -1.5
- activity at 10 µM (PRMT5; [2]): 63 ± 7%
- activity at 10 µM (PRMT5; [3]): 69%
- activity at 10 µM (PRMT5; [4]): 64%
- activity at 10 µM (PRMT5; [5]): 55%
- activity at 10 µM (PRMT6; [2]): 100 ± 3%
- activity at 10 µM (PRMT6; [3]): 97%
- activity at 10 µM (PRMT6; [4]): 99%
- activity at 10 µM (PRMT6; [5]): 103%
- activity at 10 µM (SETDB1; [2]): 103 ± 3%
- activity at 10 µM (SETDB1; [3]): 104%
- activity at 10 µM (SETDB1; [4]): 106%
- activity at 10 µM (SETDB1; [5]): 100%
- activity at 10 µM (SETD2; [2]): 103 ± 4%
- activity at 10 µM (SETD2; [3]): 99%
- activity at 10 µM (SETD2; [4]): 103%
- activity at 10 µM (SETD2; [5]): 107%
- activity at 10 µM (NSD1; [2]): 104 ± 2%
- activity at 10 µM (NSD1; [3]): 103%
- activity at 10 µM (NSD1; [4]): 102%
- activity at 10 µM (NSD1; [5]): 107%
- activity at 10 µM (NSD2; [2]): 92 ± 7%
- activity at 10 µM (NSD2; [3]): 100%
- activity at 10 µM (NSD2; [4]): 86%
- activity at 10 µM (NSD2; [5]): 90%
